Reference: patent publication USRE40594E1, “Inhibitors of the bitter taste response” (Mount Sinai School of Medicine of New York University, priority 1998, dated 2008)
Entries after “also recorded” stand apart in the source; their conditions may differ.

Assays:
[1] = target: T1, rhodopsin (Bos taurus, UniProt P02699); assay: Rhodopsin-mediated activation of transducin (trypsin sensitivity assay, receptor specificity control); format: biochemical, bovine; conditions: 0.001 mM rhodopsin; AMP 0.25, 0.5, 1.25, 2.5, 5.0 mM; FIG. 1D
T1 construct: Rhodopsin was purified in the light as 6 M urea-washed bovine rod outer segments; from tissue; host or cells: bovine rod outer segments (6 M urea-washed)
Protocol: G Protein Activation Assays. Bovine (Bos primigenius) tongues were collected fresh from a local slaughterhouse and transported on ice to the laboratory. Circumvallate papillae were hand dissected, frozen in liquid nitrogen, and stored at −80° C. until use. The collected taste tissues were homogenized, particulates removed by centrifugation, and enriched taste cell membranes collected as described (Ming, D., et al., 1998, Proc. Natl. Acad. Sci. U.S.A. 95:8933-8938). The pelleted membranes were rinsed twice, resuspended in homogenization buffer lacking protease inhibitors, and further homogenized by 20 passages through a 25-gauge needle. Aliquots were either flash frozen or stored on ice until use. The concentration of protein in the membrane preparations was determined by the Peterson modification of the micro-Lowry method (Peterson, G. L., 1977, Anal. Biochem. 83:346-356). Activation of transducin was based on the published trypsin sensitivity procedure (Ming, D., et al., 1998, Proc. Natl. Acad. Sci. U.S.A. 95:8933-8938, Neer, E. J., et al., 1994, Methods Enzymol. 237:226-239). After the trypsin digestion, samples were diluted with Laemmli buffer (Laemmli. U. K., 1970, Nature (London) 227:680-685) and separated by SDS/PAGE by using a 4-20% gel and Tris-glycine buffer. […]

[2] = tested on: glossopharyngeal nerve responses of C57BL/6J mice; assay: Glossopharyngeal nerve recording on lingual stimulation with tastants; format: in vivo
Protocol: Nerve Recording. Glossopharyngeal nerve responses were recorded from male C57BL/6J mice as previously described (Ninomiya, Y., et al., 1997, Am. J. Physiol. (London) 272:R1002-RI006). Each mouse was anesthetized with intraperitoneal injection of sodium pentobarbital (40-50 mg/kg) and maintained at a surgical level of anesthesis with supplemental injections of the drug. The trachea was cannulated, and the mouse was then fixed in the supine position with a head holder to allow dissection of the glossopharyngeal nerve. The hypoglossal nerve was transected bilaterally to prevent inadvertent tongue movements. The right glossopharyngeal nerve was exposed by removal of the digastric muscle and posterior horn of the hyoid bone. The glossopharyngeal nerve was then dissected free from underlying tissues and cut near its entrance to the posterior foramen lacerum. The entire nerve was placed on a silver wire electrode for whole nerve recording. An indifferent electrode was positioned nearby in the wound. […] Whole nerve responses were integrated by using an RMS-DC converter (Hendrick, Tallahassee, Fla.) with a time constant of 0.5 s. For chemical stimulation of the circumvallate and foliate papillae, an incision was made on each side of the animal's face from the comer of the mouth to just above the angle of the jaw, the papillae were exposed, and their trenches opened via slight tension applied through a small suture sewn in the tip of the tongue. Tastant solutions were delivered to the tongue by gravity flow, and flowed over the tongue for a controlled period. The stability of each preparation was monitored by the periodic application of 0.1 M NH4Cl. A recording was considered to be stable when the 0.1 M NH4Cl response magnitudes at the beginning and end of each stimulation series deviated by no more than 15%. Only responses from stable recordings were used in the data analysis. In the analysis of whole nerve responses, the magnitudes of the integrated response at 20, 25, 30, 35. and 40 s after stimulus onset were measured and averaged to generate tonic responses: the tonic response represents the sustained nerve response to continuous tastant stimulation of taste receptor cells. The relative tonic response for each stimulus was obtained by normalization to the response from 0.1 M NH4Cl (the tonic response of NH4Cl was defined as 1.0). Student's t test was used for statistical analysis.

T1 sequence (P02699 whole entry): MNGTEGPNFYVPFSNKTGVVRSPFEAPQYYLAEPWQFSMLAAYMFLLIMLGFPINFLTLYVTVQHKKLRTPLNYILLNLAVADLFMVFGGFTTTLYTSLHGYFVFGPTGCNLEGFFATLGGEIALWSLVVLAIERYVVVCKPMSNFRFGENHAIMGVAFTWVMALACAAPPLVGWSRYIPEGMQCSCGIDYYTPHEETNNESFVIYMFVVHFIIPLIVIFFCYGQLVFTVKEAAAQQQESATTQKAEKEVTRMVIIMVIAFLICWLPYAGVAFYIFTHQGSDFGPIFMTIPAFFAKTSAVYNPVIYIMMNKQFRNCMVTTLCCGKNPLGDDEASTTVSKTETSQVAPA

Nc1ncnc2c1ncn2[C@@H]1O[C@H](COP(=O)(O)O)[C@@H](O)[C@H]1O [AMP, adenosine 5′ monophosphate]
inhibition of activation of transducin by rhodopsin [1]: does not inhibit; also recorded: did not inhibit | inhibition of glossopharyngeal nerve responses to atropine ([2]; 1.0 mM ATR, inhibitor 0.1 mM, FIGS. 4A-C): significantly inhibited | inhibition of glossopharyngeal nerve responses to sparteine ([2]; 1.0 mM SPA, inhibitor 0.1 mM, FIGS. 4A-C, 4I (P<0.001)): inhibits; also recorded: significantly inhibited | inhibition of glossopharyngeal nerve responses to strychnine ([2]; 1.0 mM STR, inhibitor 0.1 mM, FIGS. 4A-C): significantly inhibited | effect on glossopharyngeal nerve responses to SC45647 ([2]; 3.0 mM SC45647, 0.1 mM AMP, P<0.01, FIG. 4I): inhibits; also recorded: inhibited slightly; also recorded: did diminish | inhibition of glossopharyngeal nerve responses to DEN ([2]; 5.0 mM DEN, inhibitor 0.1 mM, FIGS. 4A-C): significantly inhibited | effect on glossopharyngeal nerve responses to HCl ([2]; 5.0 mM HCl, 0.1 mM AMP, FIG. 4I): did not affect | effect on glossopharyngeal nerve responses to NH4Cl ([2]; 0.1 M NH4Cl, 0.1 mM AMP): did not affect | effect on glossopharyngeal nerve responses to NaCl ([2]; 0.1 M NaCl, 0.1 mM AMP, FIG. 4I): did not affect | effect on glossopharyngeal nerve responses to sucrose ([2]; 0.5 M sucrose, 0.1 mM AMP, FIG. 4I): did not affect | inhibition of relative tonic glossopharyngeal responses to rising DEN concentrations ([2]; DEN 0.1, 0.5, 1.0, 5.0, 10.0 mM, AMP 0.1 and 1.0 mM, n=5 to 7, FIG. 4G): significantly inhibited | inhibition of gustatory (glossopharyngeal) nerve responses to bitter compounds, summary statement ([2]; DEN, QUI and other bitter compounds): diminishes | inhibition of relative tonic glossopharyngeal responses to rising QUI concentrations ([2]; QUI 0.1, 0.3, 1.0 mM, AMP 0.1 and 1.0 mM, n=6 to 8, FIG. 4H): significantly inhibited; also recorded: reached a plateau | inhibition of glossopharyngeal nerve responses to QUI ([2]; QUI 0.1 and 1.0 mM, inhibitor 0.1 mM, FIGS. 4D-F): significantly inhibited
